Measurements from patent publication US20240317756A1, “INHIBITORS OF BRUTON'S TYROSINE KINASE” (Pharmacyclics LLC, priority 2006, published 2024).

Columns and labels:
TEC = TEC (Homo sapiens (Human), UniProt P42680); assay: in vitro HotSpot kinase assay, TEC; type: biochemical; settings: purified enzymes, 33P-ATP, 1 uM ATP
HER2 = HER2 (Homo sapiens (Human), UniProt P04626); assay: in vitro HotSpot kinase assay, HER2; type: biochemical; settings: purified enzymes, 33P-ATP, 1 uM ATP
HER4 = HER4 (Homo sapiens (Human), UniProt Q15303); assay: in vitro HotSpot kinase assay, HER4; type: biochemical; settings: purified enzymes, 33P-ATP, 1 uM ATP
From the text: (§1) Table 1 is a table showing the degree of inhibition of a panel of kinases for two example compounds. […] Thus, subtle modifications in the linker moiety and the Michael acceptor moiety are important for the design of selective ACK inhibitors.

BLK = BLK (Homo sapiens (Human), UniProt P51451); assay: in vitro HotSpot kinase assay, BLK; type: biochemical; settings: purified enzymes, 33P-ATP, 1 uM ATP
C-src = C-src (Homo sapiens (Human), UniProt P12931); assay: in vitro HotSpot kinase assay, C-src; type: biochemical; settings: purified enzymes, 33P-ATP, 1 uM ATP
From the text: as §1

FGR = FGR (Homo sapiens (Human), UniProt P09769); assay: in vitro HotSpot kinase assay, FGR; type: biochemical; settings: purified enzymes, 33P-ATP, 1 uM ATP
Fyn = Fyn (Homo sapiens (Human), UniProt P06241); assay: in vitro HotSpot kinase assay, Fyn; type: biochemical; settings: purified enzymes, 33P-ATP, 1 uM ATP
Lyn = Lyn (Homo sapiens (Human), UniProt P07948); assay: in vitro HotSpot kinase assay, Lyn; type: biochemical; settings: purified enzymes, 33P-ATP, 1 uM ATP
YES = YES (Homo sapiens (Human), UniProt P07947); assay: in vitro HotSpot kinase assay, YES; type: biochemical; settings: purified enzymes, 33P-ATP, 1 uM ATP
ABL = ABL (Homo sapiens (Human), UniProt P00519); assay: in vitro HotSpot kinase assay, ABL; type: biochemical; settings: purified enzymes, 33P-ATP, 1 uM ATP
Brk = Brk (Homo sapiens (Human), UniProt Q13882); assay: in vitro HotSpot kinase assay, Brk; type: biochemical; settings: purified enzymes, 33P-ATP, 1 uM ATP
CSK = CSK (Homo sapiens (Human), UniProt P41240); assay: in vitro HotSpot kinase assay, CSK; type: biochemical; settings: purified enzymes, 33P-ATP, 1 uM ATP
FER = FER (Homo sapiens (Human), UniProt P16591); assay: in vitro HotSpot kinase assay, FER; type: biochemical; settings: purified enzymes, 33P-ATP, 1 uM ATP
SYK = SYK (Homo sapiens (Human), UniProt P43405); assay: in vitro HotSpot kinase assay, SYK; type: biochemical; settings: purified enzymes, 33P-ATP, 1 uM ATP
From the text: as §1

lymphoma cell line DOHH2 = assay: DOHH2 cell proliferation assay (Alamar Blue); type: cell-based
Protocol: After 72 hours, cell number was measured using Alamar Blue using manufacturer's protocol. A dilution series of untreated cells was run in parallel to verify that the Alamar Blue assay reliably reflected cell number and that growth conditions were not limiting. […] GI50 values were confirmed in two or more separate experiments for each cell line.
Analogs are generated that are Btk inhibitors and that are cytotoxic to the lymphoma cell line DOHH2. For the DOHH2 cell proliferation assay, cells were seeded in 96-well plates in standard growth media (RPMI+10% fetal calf serum) and compounds were added in a 9-point dilution series ranging from 10 uM to 0.04 uM with DMSO at 0.1% final concentration in all wells. After 72 hours, cell number was measured using Alamar Blue using manufacturer's protocol. A dilution series of untreated cells was run in parallel to verify that the Alamar Blue assay reliably reflected cell number and that growth conditions were not limiting.

[1] = test system: collagen-induced arthritis; assay: collagen-induced arthritis in the mouse; type: in vivo, Male DBA/lOlaHsd mice; settings: 12.5 mg/kg or 50 mg/kg each day of an 11-day period
Protocol: […]. […] Dexamethasone was included as a positive control. Paw inflammation was scored from 0-5 and averaged across all paws from all animals for each group in the study.
. After paw inflammation was established, animals were randomized and Compound lor vehicle was dosed orally once per day starting at day 1. Paw inflammation was scored from 0-5 and averaged across all paws from all animals for each group in the study. […] Dexamethasone was included as a positive control.

BTK = BTK (Homo sapiens (Human), UniProt Q06187); assay: in vitro HotSpot kinase assay, BTK; type: biochemical; settings: Table 2, 1 uM ATP, one hour incubation with inhibitor
ITK = ITK (Homo sapiens (Human), UniProt Q08881); assay: in vitro HotSpot kinase assay, ITK; type: biochemical; settings: Table 2, 1 uM ATP, one hour incubation with inhibitor
EGFR = EGFR (Homo sapiens (Human), UniProt P00533); assay: in vitro HotSpot kinase assay, EGFR; type: biochemical; settings: Table 2, 1 uM ATP, one hour incubation with inhibitor
LCK = LCK (Homo sapiens (Human), UniProt P06239); assay: in vitro HotSpot kinase assay, LCK; type: biochemical; settings: Table 2, 1 uM ATP, one hour incubation with inhibitor
JAK3 = JAK3 (Homo sapiens (Human), UniProt P52333); assay: in vitro HotSpot kinase assay, JAK3; type: biochemical; settings: Table 2, 1 uM ATP, one hour incubation with inhibitor
[2] = glutathione binding assay; settings: 5 mM glutathione, 10 μM Btk inhibitor, room temperature, HPLC
Protocol: A calculated value (e.g (1/Btk IC50)/Glutathione conjugation rate) as shown in the Table 2) is used to compare compounds for their ratio between potency at inhibiting their target and their non-specific binding to other SH groups, such as those in glutathione. […] Calculated ratios such as these are used to quantitatively compare different compounds and select compounds for further study.
For the glutathione binding assays, 5 mM glutathione, 10 μM Btk inhibitor in DMSO (10 μL) and 6 equivalents of N′N′ Diisopropyl ethyl amine were combined in 1 mL potassium phosphate buffer. The mixture was incubated for 0, 15, 60 minutes at room temperature and the reaction was stopped with 10 equivalents of formic acid. 50 μL of each reaction mixture was injected on HPLC (Mobil Phase A: 0.2% formic acid in water, Mobile Phase B: 0.2% formic acid in acetonitrile, HPLC Column: Metasil Basic 3μ, 150×4.6 mm, 10% B, Gradient: 10% to 90% B, Detection: UV/Vis […]). Rate of reaction was reported as nmole GSH conjugate conversion per minute from the normalized ratio for area under the curve from HPLC chromatograms for both GSH conjugate and the parent.

[3] = plasma concentrations after oral dosing of rats; type: in vivo; settings: single oral dose 8 mg/kg each in combination
Protocol: Blood samples were collected at 0.0833 (5 minutes), 0.333 (20 minutes), 1, 3, 6, 9, and 24 hours post-dosing from orally dosed rats.
Male jugular vein cannulated rats were administered a single dose of all test compounds at 8 mg/kg each, in combination by oral gavage. Dose volumes were adjusted based on body weight data collected immediately prior to dosing. Blood samples were collected at 0.0833 (5 minutes), 0.333 (20 minutes), 1, 3, 6, 9, and 24 hours post-dosing from orally dosed rats. The samples were collected into plasma separator Microtainer tubes with anticoagulant (lithium heparin). Plasma samples were prepared by centrifugation (5 min at 5000×g), and at least 100 μL were transferred to storage tubes and stored frozen at −80° C. Plasma samples were thawed and 75 uL aliquots were transferred to centrifuge tubes to which 10 μL aliquots of internal standard solution (1 μg/mL) were added. The samples were not diluted with blank plasma prior to further processing. Soluble proteins were precipitated by the addition of 200 μL of acetonitrile, followed by centrifugation (20 min at 16,000×g). The samples were evaporated to dryness and reconstituted in 200 μL of water containing 0.2% formic acid and 10% methanol. All samples were loaded onto an autosampler maintained at 6° C. and evaluated for concentrations of test compounds using LC-MS/MS.

[4] = test system: pERK and BCR pathway phosphorylation in DOHH2 cells; assay: BCR signal transduction pathway phosphorylation, DOHH2; type: cell-based; settings: unstimulated DOHH2 cells; read-out: IC50 for decrease of pERK levels
From the text: To identify biomarkers that correlate with response to Compound 1, phosphorylation events in the BCR signal transduction pathway were investigated.
However, when we examined basal phosphorylation levels, we found higher basal phosphorylation in DOHH2 compared to Ramos, with phospho-ERK in particular indicating higher levels of basal or tonic signaling in DOHH2.

Egr-1 = assay: expression of ERK transcriptional target Egr-1; type: cell-based; settings: 1 uM
[5] = test system: lymphoma cell line WSU-DLCL2; assay: BCR cross-linking by anti-IgG in WSU-DLCL2; type: cell-based; settings: WSU-DLCL2, anti-IgG 30 ug/ml
[6] = test system: Tec family kinases, including Btk, and Src family kinases; assay: in vitro profiling against a panel of greater than 100 kinases; type: biochemical
From the text: By way of example only and in some embodiments, the observed potency, selectivity, and cell permeability of compounds such as Compound 2 are appropriate to incorporate these molecules into a Kinase-targeted, activity based probe that allows direct visualization of Kinase activity in intact cells. […] Without limiting the scope of the compositions and methods described herein, it is postulated that the structural basis for the selectivity is covalent modification of a non-catalytic cysteine residue (Cys 481 in Btk) that is conserved in the ATP binding pocket of the Tec family and several other kinases.

Chain of EGFR (P00533 25-1210, species assumed): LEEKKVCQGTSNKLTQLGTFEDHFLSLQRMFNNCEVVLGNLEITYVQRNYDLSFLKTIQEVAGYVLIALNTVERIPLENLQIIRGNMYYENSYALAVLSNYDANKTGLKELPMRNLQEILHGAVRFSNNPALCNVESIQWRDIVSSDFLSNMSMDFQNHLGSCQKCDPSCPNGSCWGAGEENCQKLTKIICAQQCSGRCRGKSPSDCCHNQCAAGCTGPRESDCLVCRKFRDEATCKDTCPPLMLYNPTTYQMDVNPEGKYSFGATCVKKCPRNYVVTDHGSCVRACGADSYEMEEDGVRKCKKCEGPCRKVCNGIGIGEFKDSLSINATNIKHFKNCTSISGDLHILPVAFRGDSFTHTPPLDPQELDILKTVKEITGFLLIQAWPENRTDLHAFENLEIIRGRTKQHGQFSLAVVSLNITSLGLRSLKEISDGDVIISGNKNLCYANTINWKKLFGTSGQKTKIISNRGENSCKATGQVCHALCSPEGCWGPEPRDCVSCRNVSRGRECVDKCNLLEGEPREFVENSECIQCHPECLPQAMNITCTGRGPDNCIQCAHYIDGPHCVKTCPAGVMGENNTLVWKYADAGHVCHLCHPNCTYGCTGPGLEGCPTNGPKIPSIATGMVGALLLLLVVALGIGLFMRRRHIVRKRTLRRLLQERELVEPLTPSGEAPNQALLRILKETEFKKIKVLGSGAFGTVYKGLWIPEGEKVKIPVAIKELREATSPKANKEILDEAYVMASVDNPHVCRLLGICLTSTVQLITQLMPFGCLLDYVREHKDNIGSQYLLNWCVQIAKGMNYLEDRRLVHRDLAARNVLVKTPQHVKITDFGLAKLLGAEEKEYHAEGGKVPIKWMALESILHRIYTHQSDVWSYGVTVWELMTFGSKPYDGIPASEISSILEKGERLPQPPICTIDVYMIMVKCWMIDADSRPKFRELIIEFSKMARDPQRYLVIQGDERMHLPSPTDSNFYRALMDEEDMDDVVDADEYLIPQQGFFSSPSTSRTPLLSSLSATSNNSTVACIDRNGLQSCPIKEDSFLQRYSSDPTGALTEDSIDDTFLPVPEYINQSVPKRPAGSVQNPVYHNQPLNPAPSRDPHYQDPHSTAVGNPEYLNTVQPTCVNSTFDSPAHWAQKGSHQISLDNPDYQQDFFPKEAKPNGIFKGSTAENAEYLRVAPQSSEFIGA
Chain of BTK (Q06187 whole entry): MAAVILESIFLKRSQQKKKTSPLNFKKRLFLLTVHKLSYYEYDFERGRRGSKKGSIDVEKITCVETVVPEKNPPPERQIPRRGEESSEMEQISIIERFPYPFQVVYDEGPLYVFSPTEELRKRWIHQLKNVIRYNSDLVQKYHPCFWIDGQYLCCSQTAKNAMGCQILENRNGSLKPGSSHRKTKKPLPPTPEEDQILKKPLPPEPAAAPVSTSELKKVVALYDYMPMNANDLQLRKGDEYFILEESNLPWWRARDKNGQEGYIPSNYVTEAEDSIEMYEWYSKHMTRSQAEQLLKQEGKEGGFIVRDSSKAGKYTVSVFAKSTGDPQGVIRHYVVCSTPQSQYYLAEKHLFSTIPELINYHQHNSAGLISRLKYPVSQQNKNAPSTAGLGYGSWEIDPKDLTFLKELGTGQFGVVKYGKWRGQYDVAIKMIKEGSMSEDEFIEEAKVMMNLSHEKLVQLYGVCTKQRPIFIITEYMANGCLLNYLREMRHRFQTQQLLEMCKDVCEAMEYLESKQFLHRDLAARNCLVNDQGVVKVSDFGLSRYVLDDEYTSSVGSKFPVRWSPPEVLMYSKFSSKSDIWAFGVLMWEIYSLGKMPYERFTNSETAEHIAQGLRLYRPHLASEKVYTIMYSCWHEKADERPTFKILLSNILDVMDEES
Chain of ITK (Q08881 whole entry, species assumed): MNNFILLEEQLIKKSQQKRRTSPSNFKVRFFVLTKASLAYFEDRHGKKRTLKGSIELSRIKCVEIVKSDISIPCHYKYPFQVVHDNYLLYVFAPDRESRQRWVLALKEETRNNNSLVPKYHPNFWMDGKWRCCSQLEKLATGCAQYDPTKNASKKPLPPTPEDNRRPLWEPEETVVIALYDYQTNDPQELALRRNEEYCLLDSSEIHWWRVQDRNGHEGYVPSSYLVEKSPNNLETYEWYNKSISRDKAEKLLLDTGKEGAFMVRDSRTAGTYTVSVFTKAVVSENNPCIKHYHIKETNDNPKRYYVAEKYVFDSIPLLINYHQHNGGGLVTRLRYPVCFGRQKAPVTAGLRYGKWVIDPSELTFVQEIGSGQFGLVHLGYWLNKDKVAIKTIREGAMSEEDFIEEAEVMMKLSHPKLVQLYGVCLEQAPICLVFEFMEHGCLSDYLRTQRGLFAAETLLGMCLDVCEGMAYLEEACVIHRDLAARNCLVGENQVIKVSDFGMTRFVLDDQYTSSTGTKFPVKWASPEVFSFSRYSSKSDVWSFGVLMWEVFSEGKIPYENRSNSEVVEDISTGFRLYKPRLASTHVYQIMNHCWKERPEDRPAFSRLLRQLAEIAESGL
Chain of LCK (P06239 whole entry, species assumed): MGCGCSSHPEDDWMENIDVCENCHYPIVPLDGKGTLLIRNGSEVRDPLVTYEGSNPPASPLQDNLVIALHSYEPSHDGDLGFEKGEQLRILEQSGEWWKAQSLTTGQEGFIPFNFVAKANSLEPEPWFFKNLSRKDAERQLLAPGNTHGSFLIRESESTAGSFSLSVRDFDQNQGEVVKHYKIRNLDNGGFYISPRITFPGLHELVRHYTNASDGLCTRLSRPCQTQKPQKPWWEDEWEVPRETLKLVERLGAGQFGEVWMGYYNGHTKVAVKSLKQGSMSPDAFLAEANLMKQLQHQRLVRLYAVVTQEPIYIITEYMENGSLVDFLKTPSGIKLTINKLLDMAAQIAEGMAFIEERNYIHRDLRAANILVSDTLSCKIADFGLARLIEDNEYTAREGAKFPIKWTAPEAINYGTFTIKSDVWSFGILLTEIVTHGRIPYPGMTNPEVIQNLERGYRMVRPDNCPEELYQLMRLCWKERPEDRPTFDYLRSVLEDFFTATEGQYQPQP
Chain of JAK3 (P52333 whole entry, species assumed): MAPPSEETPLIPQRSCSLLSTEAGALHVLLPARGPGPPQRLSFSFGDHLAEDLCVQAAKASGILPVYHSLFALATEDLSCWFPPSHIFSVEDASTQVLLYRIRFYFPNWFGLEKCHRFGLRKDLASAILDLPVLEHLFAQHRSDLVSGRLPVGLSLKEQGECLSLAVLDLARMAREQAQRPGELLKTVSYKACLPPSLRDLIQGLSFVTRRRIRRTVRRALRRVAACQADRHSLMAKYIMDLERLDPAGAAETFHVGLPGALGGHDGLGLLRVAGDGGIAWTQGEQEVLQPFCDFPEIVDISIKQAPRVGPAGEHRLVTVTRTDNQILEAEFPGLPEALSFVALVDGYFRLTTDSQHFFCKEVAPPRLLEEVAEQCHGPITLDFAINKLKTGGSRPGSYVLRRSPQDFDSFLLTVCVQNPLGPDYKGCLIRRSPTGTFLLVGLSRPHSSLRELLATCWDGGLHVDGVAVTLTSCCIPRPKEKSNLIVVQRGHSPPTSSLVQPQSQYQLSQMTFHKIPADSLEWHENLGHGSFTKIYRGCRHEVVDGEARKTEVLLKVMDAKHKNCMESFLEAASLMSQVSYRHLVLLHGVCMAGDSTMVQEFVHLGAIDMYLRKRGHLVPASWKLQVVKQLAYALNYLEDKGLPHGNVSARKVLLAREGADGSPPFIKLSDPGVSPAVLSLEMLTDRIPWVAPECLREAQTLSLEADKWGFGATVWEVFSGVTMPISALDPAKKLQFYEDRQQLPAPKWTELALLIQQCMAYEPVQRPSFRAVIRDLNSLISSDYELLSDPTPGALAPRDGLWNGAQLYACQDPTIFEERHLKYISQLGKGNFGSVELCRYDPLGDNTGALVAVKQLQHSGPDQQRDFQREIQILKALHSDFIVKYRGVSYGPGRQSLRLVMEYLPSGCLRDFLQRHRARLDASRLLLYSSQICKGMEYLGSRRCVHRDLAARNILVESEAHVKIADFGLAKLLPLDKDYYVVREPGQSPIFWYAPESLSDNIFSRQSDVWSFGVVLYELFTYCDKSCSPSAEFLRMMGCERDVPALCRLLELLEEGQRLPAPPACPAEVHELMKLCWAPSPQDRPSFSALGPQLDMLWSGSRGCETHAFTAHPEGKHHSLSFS
Chain of BLK (P51451 whole entry, species assumed): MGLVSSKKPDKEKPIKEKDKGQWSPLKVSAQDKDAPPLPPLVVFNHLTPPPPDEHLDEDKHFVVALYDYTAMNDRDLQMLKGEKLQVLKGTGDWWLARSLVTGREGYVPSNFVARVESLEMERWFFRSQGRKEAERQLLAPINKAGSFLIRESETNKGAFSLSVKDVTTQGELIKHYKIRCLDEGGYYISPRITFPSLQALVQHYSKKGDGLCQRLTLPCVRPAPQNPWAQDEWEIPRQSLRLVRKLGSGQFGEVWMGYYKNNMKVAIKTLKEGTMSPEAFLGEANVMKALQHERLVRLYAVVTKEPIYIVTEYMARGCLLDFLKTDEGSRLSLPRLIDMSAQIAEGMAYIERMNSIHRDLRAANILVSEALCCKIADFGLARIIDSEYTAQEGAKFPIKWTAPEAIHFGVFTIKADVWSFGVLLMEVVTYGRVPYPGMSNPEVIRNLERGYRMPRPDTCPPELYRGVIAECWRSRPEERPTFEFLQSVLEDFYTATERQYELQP
Chain of CSK (P41240 whole entry, species assumed): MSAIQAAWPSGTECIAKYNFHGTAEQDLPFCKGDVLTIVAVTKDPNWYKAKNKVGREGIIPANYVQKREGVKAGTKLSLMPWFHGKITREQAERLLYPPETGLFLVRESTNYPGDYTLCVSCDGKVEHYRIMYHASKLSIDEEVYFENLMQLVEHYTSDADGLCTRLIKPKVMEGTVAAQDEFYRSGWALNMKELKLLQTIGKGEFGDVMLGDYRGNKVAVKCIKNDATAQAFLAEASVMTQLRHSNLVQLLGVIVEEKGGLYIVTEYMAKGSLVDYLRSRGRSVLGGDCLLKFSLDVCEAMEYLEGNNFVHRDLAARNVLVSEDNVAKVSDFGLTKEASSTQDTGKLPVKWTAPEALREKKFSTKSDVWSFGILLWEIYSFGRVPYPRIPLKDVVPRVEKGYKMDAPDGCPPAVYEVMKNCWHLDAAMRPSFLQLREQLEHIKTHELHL

C=CC(=O)N[C@H]1CC[C@@H](n2nc(-c3ccc(Oc4ccccc4)cc3)c3c(N)ncnc32)CC1 [Compound 9]
IC50 (TEC): 108 nM
IC50 (HER2): 1540 nM
IC50 (HER4): 3.2 nM
IC50 (BLK): 0.2 nM
IC50 (C-src): 14.3 nM
IC50 (FGR): 0.4 nM
IC50 (Fyn): 7.1 nM
IC50 (Lyn): 1.2 nM
IC50 (YES): 0.8 nM
IC50 (ABL): 32.3 nM
IC50 (Brk): 3.3 nM
IC50 (CSK): 2.4 nM
IC50 (FER): 3350 nM
IC50 (SYK): > 10000 nM
GI50 (lymphoma cell line DOHH2; 72 hours): 11 nM
paw inflammation [1]: reduced the increase in paw inflammation

CN(C)C/C=C/C(=O)N1CCC[C@H]1Cn1nc(-c2ccc(Oc3ccccc3)cc2)c2c(N)ncnc21 [Compound 12, (E)-1-((S)-2-((4-amino-3-(4-phenoxyphenyl)-1H-pyrazolo[3,4-d]pyrimidin-1-yl)methyl)pyrolidin-1-yl)-4-(dimethylamino)but-2-en-1-one]
IC50 (BTK): 1.33 nM
IC50 (ITK): 14300 nM
IC50 (EGFR): 698 nM
IC50 (LCK): 5.97 nM
IC50 (JAK3): > 10000 nM
Glutathione Conj Rate [2]: 0.004361 nmol/min
GI50 (lymphoma cell line DOHH2; 72 hours): > 10000 nM
in vivo half-life [3]: short half-life in vivo

Nc1ncnc2c1c(-c1ccc(Oc3ccccc3)cc1)nn2[C@@H]1CCCCN1C(=O)/C=C/c1c[nH]cn1 [Compound 4]
IC50 (BTK): 22.2 nM
IC50 [4]: < 10 nM
time to reduced Egr-1 expression (Egr-1): ≤ 1 h
maximal downregulation of Egr-1 expression (Egr-1; achieved by 4 hr): 10 fold
inhibition of pERK under BCR cross-linking [5]: overcomes inhibition of pERK

CN(C)C/C=C/C(=O)N1CCC[C@@H](n2nc(-c3ccc(Oc4ccccc4)cc3)c3c(N)ncnc32)C1 [Compound 2]
IC50 (BTK): 1.1 nM
IC50 (EGFR): 48.8 nM
GI50 (lymphoma cell line DOHH2; 72 hours): 320 nM
potency and selectivity in kinase panel [6]: highly potent and selective inhibitor

CN(C)C/C=C/C(=O)N1CCC(n2nc(-c3ccc(Oc4ccccc4)cc3)c3c(N)ncnc32)CC1 [Compound 7, (E)-1-(4-(4-amino-3-(4-phenoxyphenyl)-1H-pyrazolo[3,4-d]pyrimidin-1-yl)piperidin-1-yl)-4-(dimethylamino)but-2-en-1-one]
IC50 (BTK): 6.3 nM
IC50 (ITK): 6120 nM
IC50 (EGFR): 269 nM
IC50 (LCK): 2.6 nM
IC50 (JAK3): > 10000 nM
Glutathione Conj Rate [2]: 0.01 nmol/min
GI50 (lymphoma cell line DOHH2; Homo sapiens, DOHH-2, 72 hours): 317 nM
in vivo half-life [3]: significantly longer in vivo half-life
